Laboratory results published in BindingDB's records for doi:10.7270/Q2TX3CTT (Broad Institute, 2010).

Target: Glycogen synthase kinase-3 beta (Homo sapiens, UniProt P49841)
Experiment: GSK3beta kinase inhibitor potency, dose response, biochemical, luminescence, cell-free homogeneous, retest (AID 434954)

Sequence of Glycogen synthase kinase-3 beta (P49841 whole entry): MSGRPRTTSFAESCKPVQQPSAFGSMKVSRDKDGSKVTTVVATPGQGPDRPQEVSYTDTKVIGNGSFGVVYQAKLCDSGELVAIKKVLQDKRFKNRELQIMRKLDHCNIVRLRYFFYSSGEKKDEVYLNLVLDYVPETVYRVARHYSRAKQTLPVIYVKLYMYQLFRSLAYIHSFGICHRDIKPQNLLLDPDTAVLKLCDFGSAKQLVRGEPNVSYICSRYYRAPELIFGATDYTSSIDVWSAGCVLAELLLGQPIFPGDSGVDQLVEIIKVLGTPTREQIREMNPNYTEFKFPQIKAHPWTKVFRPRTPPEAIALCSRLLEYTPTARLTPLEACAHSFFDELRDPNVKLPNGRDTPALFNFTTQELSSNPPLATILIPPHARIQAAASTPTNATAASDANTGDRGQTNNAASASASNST

Row | SMILES | EC50 [µM]
1 | CC(C)=CCc1c(O)cc(O)c2c1O[C@H](c1ccc(O)cc1)CC2=O | > 300
2 | c1ccc(Nc2nc(-c3ccncc3)nc3ccccc23)cc1 | 22
3 | COc1cccc(C(N)=O)c1 | > 300
4 | Nc1ncnc2c1ncn2[C@@H]1O[C@H](CO)[C@@H](O)[C@H]1N | > 300
5 | CC(C)n1cnc2c(Nc3cccc(Cl)c3)nc(NCCCO)nc21 | > 300
6 | NC(=O)c1c(NC(=O)c2ccncc2)sc2c1CCCC2 | > 300
7 | N#Cc1c(N)nc2c(c1-c1ccc(F)cc1)CCC2 | > 300
8 | O=C(Nc1ccc(O)c2c(=O)cc(-c3ccccc3Cl)oc12)c1ccc(Cl)c(Cl)c1 | 117
9 | O=C(O)CSCC(=O)NCc1c(Cl)cccc1Oc1ccccc1 | > 300
10 | Fc1ccccc1CN=Nc1ncnc2nc[nH]c12 | 11.2
11 | Cc1c(C(=O)O)cccc1-n1c(C)cc(CN=Nc2ccc([N+](=O)[O-])cn2)c1C | 21.3
12 | O=C(Cc1ccc(F)cc1)NN=Cc1ccc(-c2ccc(Cl)c(C(=O)O)c2)o1 | > 300
13 | COc1cccc(-c2nc(SCC(=O)Nc3nc(-c4ccccc4)c(C)s3)[nH]c(=O)c2C#N)c1 | > 300
14 | CCOc1ccc2nc(NC(=O)CSc3nc(O)c(C#N)c(-c4ccccc4)n3)sc2c1 | 34.2
15 | O=C(O)c1ccc(-c2ccc(CN=Nc3ccc([N+](=O)[O-])cc3)o2)cc1 | > 300
16 | O=C(CCc1ccccc1)Nc1ncc([N+](=O)[O-])s1 | > 300
17 | N#CC(C#N)c1nc2ccccc2nc1-[n+]1cccc([N-]C(=O)c2ccccc2)c1 | > 300
18 | CCC(=NNC(=S)Nc1cccc(C)c1)c1ccccc1 | > 300
19 | O=C1N=C(S)SC1=Cc1ccc(N2CCOCC2)o1 | 8.5
20 | COc1cc(/C=N/NC(=O)c2ccc(Cl)cc2)ccc1Oc1ccc([N+](=O)[O-])cn1 | > 300
21 | O=C(COc1ccc(Cl)cc1)Nc1ncc([N+](=O)[O-])s1 | 26.3
22 | OCCNc1nc2nonc2nc1NCCO | > 300
23 | OCCCNc1cc(-c2ccnc(Nc3cccc(Cl)c3)n2)ccn1 | 0.212
24 | CCOC(=O)C(C(=O)Nc1ccc(Cl)cc1Cl)C1=NC(C)(C)Cc2ccccc21 (stereo not given) | > 300

Row | SMILES | EC50 [µM]
25 | NNC(=O)CNC(=O)c1ccc(F)cc1 | > 300
26 | O=[N+]([O-])c1ccc(Cl)cc1NCCCN1CCOCC1 | > 300
27 | O=[N+]([O-])c1ccccc1Oc1ccccc1Cl | > 300
28 | CCOC(=O)c1cnc2ccc(OC)cc2c1NCCc1ccc(OC)c(OC)c1 | > 300
29 | CCOC(=O)C1C(C(F)(F)F)=Nc2ncnn2C1c1cc(OC)ccc1OC (stereo not given) | > 300
30 | Cc1ccc(Nc2nc(N)c([N+](=O)[O-])c(NCc3ccco3)n2)cc1 | 9.2
31 | CNc1nc(N)c([N+](=O)[O-])c(NCCO)n1 | 67.1
32 | CC(C)CNc1nc(N)c([N+](=O)[O-])c(NCC2CCCO2)n1 (stereo not given) | 6.1
33 | Cc1ccc(Nc2nc(NCC3CCCO3)nc(N)c2[N+](=O)[O-])cc1 (stereo not given) | 4.95
34 | CN(C)c1nc(N)c([N+](=O)[O-])c(NCCO)n1 | > 300
35 | Nc1nc(NCCO)nc(NCC2CCCO2)c1[N+](=O)[O-] (stereo not given) | 9.74
36 | CC(NC(=O)/C=C/c1ccco1)c1nc2ccccc2n1Cc1ccccc1F (stereo not given) | > 300
37 | Nc1nc(NCC2CCCO2)nc(NCC2CCCO2)c1[N+](=O)[O-] (stereo not given) | 12.2
38 | Fc1cccc(CN=Nc2ncnc3nc[nH]c23)c1 | 11.9
39 | COC1=C/C(=C/c2c(N)n3cc(C)sc3nc2=O)C=CC1=O | > 300
40 | COCC(C)n1c(C)cc(C(=O)COC(=O)c2ccc3c(c2)NC(=O)CS3)c1C (stereo not given) | > 300
41 | CC(CC(=O)Nc1ccc(F)c([N+](=O)[O-])c1)c1ccccc1 (stereo not given) | > 300
42 | COc1ccc(C(=O)OCCc2ccc(O)cc2)cc1 | > 300
43 | C=CCNC(=O)/C(=C\c1cccc([N+](=O)[O-])c1)NC(=O)c1ccccc1 | > 300
44 | O=C1c2ccccc2NC(c2c[nH]nc2-c2ccccc2)N1O (stereo not given) | > 300
45 | CC1=NC2=C(C(=O)CC(C)(C)C2)C(c2ccc(O)cc2)C1C#N (stereo not given) | > 300
46 | CC(C)Nc1nc(N=C(N)S)nc(NC(C)C)n1 | > 300
47 | Cc1ccnc(NC(=O)C(C)n2cc([N+](=O)[O-])cn2)c1 (stereo not given) | 7.19
48 | CC(=O)COc1cc(C)cc2oc(=O)cc(-c3ccccc3)c12 | > 300

Row | SMILES | EC50 [µM]
49 | CCCNC(=O)c1ccc(SCC(=O)N(CC)CC)c([N+](=O)[O-])c1 | > 300
50 | CC1=C(C(=O)Nc2ccccc2F)C(c2cccs2)C2C(=O)CCCC2=N1 (stereo not given) | > 300
51 | OC1(C#CCN2CCOCC2)CCCCC1 | > 300
52 | O=Cc1cn(CCC(=O)O)nc1-c1cccc(Cl)c1 | > 300
53 | c1ccc(-c2nnc(-c3ccncc3)nc2-c2ccccc2)cc1 | > 300
54 | Fc1ccc(CSc2nnc(-c3ccncc3)o2)cc1 | > 300
55 | N#Cc1ccccc1NC(=O)CSc1nnc(-c2ccncc2)o1 | > 300
56 | CN(C)CC(=O)N1c2ccccc2Sc2ccc(Cl)cc21 | > 300
57 | COc1ccc(NC(=S)Nc2cccc(Cl)c2Cl)cc1OC | > 300
58 | C[N+](C)=c1ccn(CC(=O)N2c3ccccc3Sc3ccccc32)cc1 | > 300
59 | Cc1cc2c(=O)oc(-c3ccc(F)cc3)nc2s1 | > 300
60 | O=C(NN=Cc1ccc(Br)s1)c1cccnc1 | > 300
61 | Cc1ccnc(NC(=O)CCC(=O)N(CC(=O)NCc2ccccc2)Cc2cccs2)c1 | 16.9
62 | O=C(Nc1ccccc1)Nc1ccncc1 | > 300
63 | CC(Cc1c[nH]c2ccccc12)NC(=O)OCCCl (stereo not given) | > 300
64 | O=C(COc1ccccc1[N+](=O)[O-])NN=Cc1ccncc1 | > 300
65 | CN1CCN(c2cc([N+](=O)[O-])ccc2Cl)CC1 | > 300
66 | c1ccc(CSc2ccc3nnc(-c4ccccn4)n3n2)cc1 | > 300
67 | Cc1ccc(CSc2ccc3nnc(-c4ccccn4)n3n2)cc1 | > 300
68 | COc1ccc(-c2csc(N(CC3CCCO3)C(=O)c3ccccc3)n2)cc1 (stereo not given) | > 300
69 | c1ccc(CCCNCC2COc3ccccc3O2)cc1 (stereo not given) | > 300
70 | Cc1[nH]nc2c1C(c1ccc(O)cc1)C1C(=O)CC(C)(C)CC1=N2 (stereo not given) | 2.06
71 | Cc1ccc(C(=O)COC(=O)c2ccc(O)cc2)cc1 | > 300
72 | O=C(Nc1cccc2c1C(=O)NC2=O)c1cccc(-n2c(O)ccc2O)c1 | > 300

Row | SMILES | EC50 [µM]
73 | CC(C)N1CCc2c(sc(NC(=O)CN3C(=O)c4ccccc4C3=O)c2C(N)=O)C1 | > 300
74 | N#Cc1c(-c2ccc(F)cc2)nc(-c2ccccc2)[nH]c1=O | > 300
75 | CCO[C@H]1OC(C(=O)N2CCN(Cc3ccccc3)CC2)=C[C@@H](C)[C@@H]1CCCO | > 300
76 | COc1ccc(-c2nn(CCC#N)cc2CN=O)cc1 | 86.3
77 | O=NCc1ccc(N2CCCC2)c([N+](=O)[O-])c1 | 5.66
78 | COc1ccccc1NC(=O)C(C)Nc1ccc(C)c(Cl)c1 (stereo not given) | > 300
79 | CCN(CC)S(=O)(=O)c1ccc(O)c(C(=O)OCC(=O)Nc2cc(C)c(C)cc2[N+](=O)[O-])c1 | > 300
80 | O=C(O)c1ccc(CN=Nc2ccc(C(F)(F)F)cn2)cc1 | 20.4
81 | c1cncc(-c2nc(NCc3cccs3)c3ccccc3n2)c1 | > 300
82 | Cc1cc(C)n2nc(SCC(=O)N(CC(C)C)c3c(N)n(CC(C)C)c(=O)[nH]c3=O)nc2n1 | > 300
83 | O=S(=O)(/C=C/c1ccccc1)N1CCN(Cc2ccc3c(c2)OCO3)CC1 | > 300
84 | Fc1ccccc1Cn1c2[n+](c3ccc(C(F)(F)F)cc31)CCCCC2 | > 300
85 | COc1cc(C2OCC3C(c4cc(OC)c(OC)c(OC)c4)OCC23)cc(OC)c1OC (stereo not given) | > 300
86 | COc1cc(/C=C2\Oc3cc(O)ccc3C2=O)ccc1O | 12.4
87 | Clc1cccc(Nc2nc(-c3ccncc3)nc3ccccc23)c1 | 56.8
88 | Nc1nc(Nc2ccccc2)nc(NCc2ccccc2)c1[N+](=O)[O-] | 13.3
89 | CCCn1nc(NC(=O)c2cccs2)c2cc3cccc(C)c3nc21 | > 300
90 | COCCCNc1nc(N)c([N+](=O)[O-])c(NCC2CCCO2)n1 (stereo not given) | 3.93
91 | O=C(C[n+]1ccc(C=Cc2ccccc2)cc1)c1ccc2c(c1)OCCO2 | 125
92 | O=C(CN1CCN(Cc2ccccc2Cl)CC1)NN=Cc1ccccn1 | 51.5
93 | Nc1nc(NCCOCCO)nc(NCC2CCCO2)c1[N+](=O)[O-] (stereo not given) | 16.7
94 | CC1CN(c2nc(Nc3ccccc3)nc(N)c2[N+](=O)[O-])CC(C)O1 (stereo not given) | 35.9
95 | CCCc1nc2c([nH]1)c(=O)n(C)c(=O)n2C | > 300
96 | Cc1nc(Nc2ccccc2)sc1C(=O)Nc1ccccc1 | > 300

Row | SMILES | EC50 [µM]
97 | CCn1nc(NC(=O)Cc2ccc(OC)cc2)c2cc3cc(C)ccc3nc21 | > 300
98 | Fc1ccc(CSc2nnc(-c3ccco3)o2)cc1 | > 300
99 | Cc1ccc(CNc2nc(N)c([N+](=O)[O-])c(NCCO)n2)cc1 | 117
100 | Nc1nc(NCc2ccco2)nc(NCCO)c1[N+](=O)[O-] | > 300
101 | CSc1nc(NCCCO)c2c3c(sc2n1)CN(C)CC3 | 29.8
102 | NC(=O)COC(=O)c1ccc(-c2ccc(O)cc2)cc1 | > 300
103 | C/C=C/c1ccc(OCC(=O)O)c(OC)c1 | > 300
104 | S=c1[nH]c(-c2ccccc2)cn1N=Cc1ccncc1 | 140
105 | Nc1nc(Nc2cccc(Cl)c2)nc(NCCO)c1[N+](=O)[O-] | 1.73
106 | COc1ccccc1Nc1nc(NCCO)nc(N)c1[N+](=O)[O-] | 87.6
107 | c1ccc(Nc2ncnc3[nH]ncc23)cc1 | 45.5
108 | O=S1(=O)CC2SC(=S)N(c3ccccc3)C2C1 (stereo not given) | > 300
109 | N#CCCN1CCCc2cc(/N=N/c3ccc(C(F)(F)F)cc3)ccc21 | > 300
110 | Cn1nc2c3ccccc3n(Cc3ccc(F)cc3)c2nc1=S | > 300
111 | c1ccc(CN=Nc2nccc(-c3cccnc3)n2)cc1 | 16.9
112 | O=C(Nc1ccc(O)c2c(=O)cc(-c3ccccc3Cl)oc12)c1cccc(Cl)c1 | 87.4
113 | O=C(Nc1ccc(O)c2c(=O)cc(-c3ccccc3Cl)oc12)c1ccc(Cl)cc1Cl | 9.16
114 | O=c1cc(-c2ccccc2Cl)oc2c(NS(=O)(=O)c3ccccc3C(F)(F)F)ccc(O)c12 | > 300
115 | O=C(Nc1ccc(O)c2c(=O)cc(-c3ccccc3Cl)oc12)c1ccccc1Cl | > 300
116 | Cc1cccc(C(=O)Nc2ccc(O)c3c(=O)cc(-c4ccccc4Cl)oc23)c1 | > 300
117 | CC1=C(C#N)C(=O)NC(=O)C1=CNc1ccc(S(=O)(=O)N(C)C)cc1 | > 300
118 | COc1ccc(C(=O)c2sc(Nc3ccccc3)nc2N)cc1 | 1.04
119 | Cc1ccc(C(=O)Nc2ncc([N+](=O)[O-])s2)cc1 | > 300
120 | O=c1c(O)c(-c2ccc(O)cc2)oc2cc(O)cc(O)c12 | 11.6
